Test results published in patent publication US6562834B2, “Combination comprising camptothecin and a stilbene derivative for the treatment of cancer” (Aventis Pharma S. A., priority 2000, dated 2003).

Tested on: colon adenocarcinoma C51
Experiment: Antitumor effect and safety of CPT-11, combretastatin and their combinations in mice bearing colon adenocarcinoma C51
Type: in vivo
Experimental: This efficacy may be quantified, for example by the log10 cells killed, which is determined by the following formula:
log10 cells killed=T−C(days)/3.32×Td
in which T−C represents the time taken for the cells to grow, which is the mean time in days for the tumors of the treated group (T) to reach a predetermined value (1 g for example) and the tumors of the control group (C) to reach the same value, and Td represents the time in days needed for the volume of the tumors in the control group to double. (T. H. Corbett et al., Cancer, 40, 2660.2680 (1977); F. M. Schabel et al., Cancer Drug Development, Part B, Methods in Cancer Research, 17, 3-51, New York, Academic Press Inc. (1979)). A product is considered to be active if log10 cells killed is greater than or equal to 0.7. A product is considered to be very active if the log10 cells killed is greater than 2.8.
The effect of the combination of CPT-11 and combretastatin was evaluated in mice bearing colon adenocarcinoma C51. CPT-11 was given orally on days two through five, […], at different dosage levels. Combretastatin was administered intravenously, two times a day, on days one to five. In the combination arms, three different dosages of CPT-11 were administered orally twice daily on days two through five and three different dosages of combretastatin were administered intravenously twice a day on days one through five.
Combretastatin, administered intravenously, and CPT-11, administered orally, were tested in several different schedules as reported in Table IV. When used as a single agent, combretastatin was administered twice a day for five consecutive days. When CPT-11 was administered alone, it was given once a day for four consecutive days.
When administered sequentially, two schedules were used. When combretastatin was given first, it was administered on day 1, followed by administration of CPT-11 once a day on days 2-5. When CPT-11 was the first compound given in the sequence, it was administered once a day on days 1-4, followed by combretastatin on day 5.

Compound | highest non-toxic dose (CPT-11 oral, single agent, mice) | Log10 Cell Kill (single agent CPT-11 oral 400 mg/kg (highest non-toxic dose), Colon 51, tumor size 400-500 mg, Td = 2.4 d) | Colon 51 PR (partial response: mice with decrease in tumor volume of at least 50% / mice tested) (single agent combretastatin IV 116.5 mg/kg/injection (highest non-toxic dose)) | Log10 Cell Kill (single agent combretastatin IV 116.5 mg/kg/injection (highest non-toxic dose), 2 x/day days 1-5, Colon 51)
CCc1c2c(nc3ccc(OC(=O)N4CCC(N5CCCCC5)CC4)cc13)-c1cc3c(c(=O)n1C2)COC(=O)[C@]3(O)CC [CPT-11, irinotecan] | 400 mg/kg | 1.1 |  | 
Combretastatin |  |  | 5/5 | 1.3
